# Assay results taken from patent US5444056A, “Aminoalkoxyphenyl derivatives, process for their preparation and compositions containing them” (Sanofi, priority 1989, dated 1995).
# Structures can show the parent of a compound that is named as a salt.
# Legend:
# [1] = test system: contractile response to potassium-induced depolarization on isolated rat aorta; assay: Calcium inhibitory properties: antagonism of contractile response to potassium-induced depolarization on isolated rat aorta; parameters: species or system rat (male Wistar); details: percent of maximal contraction before incubation, 60 min
# Source text: It is well established that the depolarization of a smooth muscle membrane by potassium makes the latter permeable to extracellular calcium and induces muscle contraction. Consequently, the measurement of inhibition of the contractile response to depolarization by potassium or the measurement of relaxation of the tonic contraction on potassium depolarization can provide an evaluation of the potency of a compound as an inhibitor of the membrane permeability to Ca^++ ions. The technique used is the following: The aorta is removed from male Wistar rats weighing about 300 g and cut into strips approximately 40 mm long and 3 mm wide. These fragments are placed in a 25 ml isolated organ bath containing modified Krebs-bicarbonate solution (112 mM NaCL; 5 mM KCl; 25 mM NaHCO3; 1 mM KH2 PO4; 1.2 mM MgSO4; 2.5 mM CaCl2; 11.5 mM glucose, made up to 1000 ml with distilled water) maintained at 37° C. and through which a stream of carbon dioxide is passed. The preparation is connected to a force microsensor and the contractile response is recorded after amplification on a recorder. A tension of 2g is applied to the preparation. This latter is maintained in the modified Krebs-bicarbonate solution for 60 minutes, and then contractions are induced by replacing the Krebsbi-carbonate solution by a Krebs-potassium solution (17 mM NaCl; 100 mM KCl; 25 mM NaHCO3; 1 mM KH2 PO4; 1.2 mM MgSO4; 2.5 mM CaCl2; 11.5 mM glucose; made up to 1000 ml with distilled water). When the contractile response of the preparation has become reproducible, a given amount of the compound of the invention is introduced into the bath. Sixty minutes later a new spasm is induced by potassium depolarization. The results obtained on the aorta under investigation are then expressed in percent of the maximal contractional effect before incubation with the test substance. As examples, the following results were obtained, the compounds of formula (1) being in the form of the free base, the hydrochloride, oxalate or fumarate.
# [2] = test system: increase in blood pressure induced by epinephrine (anti-α effect); assay: Anti-α effect: reduction of epinephrine-induced increase in blood pressure in anesthetized atropinized dog; assay type: in vivo; parameters: key: +: for a reduction <50%; ++: for a reduction ≥50%; +++: for an almost complete reduction
# Experimental: The aim of this test is to determine the capacity of the compounds of the invention to reduce the increase in blood pressure induced by epinephrine (anti-αeffect) and the acceleration of the heart rate induced by isoprenaline (anti-βeffect) in the dog previously anesthetized with pentobarbital and atropinized. First, are determined for each dog the dose of epinephrine (between 3 and 10 μg/kg) which causes a reproducible increase in arterial blood pressure of about 133.10^2 Pa and the dose of isoprenaline (1 to 2 μg/kg) which causes a reproducible increase in the heart rate of about 70 beats/minute. The doses of epinephrine and isoprenaline thus determined are injected alternatively every ten minutes and after the two consecutive reference responses have been obtained, a quantity of the test compound is administered by the intravenous route. The percentage reduction of the hypertension caused by the test compound in comparison with the reference hypertension previously obtained (about 100 mm Hg) is recorded. In both cases, the results of the reduction in arterial pressure and heart rate are expressed as follows: […]
Compound,"% maximal contractional effect ([1]; 10^-7 M, 0.1 µM)","% maximal contractional effect ([1]; 10^-8 M, 0.01 µM)","% maximal contractional effect ([1]; 10^-9 M, 0.001 µM)",other results
"CCCCN(CCCC)CCCOc1ccc(S(=O)(=O)c2c(C(C)C)n(C)c3cc(C)ccc23)cc1.O=C(O)C(=O)O [Ex. 46, 1-methyl 2-isopropyl 3-{4-[3-(di-n-butylamino)propoxy]benzenesulfonyl} 6-methyl indole hydrogen oxalate]","41,7%","67,2%","79,5%",
"COc1ccc2[nH]c(C)c(Sc3ccc(OCCCN(C)CCc4ccc(OC)c(OC)c4)cc3)c2c1 [Ex. 9, 3-{4-[3-(N-methyl N-3,4-dimethoxy-β-phenethylamino)propoxy]phenylthio} 5-methoxy 2-methyl indole hydrogen oxalate]","70,4%","84,4%",88%,
"COc1ccc(CCN(C)CCCOc2ccc(S(=O)(=O)c3c(C(C)C)n(C)c4cc(C)ccc34)cc2)cc1OC [Ex. 45, 1-methyl 2-isopropyl 3-{4-[3-(N-methyl N-3,4-dimethoxy-β-phenethylamino)propoxy]benzenesulfony} 6-methyl indole hydrogen oxalate]","15,7%","75,2%","83,2%",
"COc1ccc(CCN(C)CCCOc2ccc([S+]([O-])c3c(C(C)C)c4cc(Cl)ccc4n3C)cc2)cc1OC (stereo not drawn) [Ex. 56, (5-chloro 3-isopropyl 1-methylindo-2yl)4-[3-(N-methyl N-3,4-dimethoxy-β-phenethylamino)propoxy]phenyl sulfoxide hydrogen oxalate]","19,8%","61,3%","78,6%","Anti-α effect ([2]; intravenous, 0,67 mg/kg): +++"
"CCc1nn2cccc(C)c2c1S(=O)(=O)c1ccc(OCCCN(C)CCc2ccc(OC)c(OC)c2)cc1 [Ex. 78, 3-{4-[3-(N-methyl N-3,4-dimethoxy-β-phenethylamino)propoxy]benezenesulfonyl} 2-ethyl 4-methyl pyrazolo[1,5-a]pyridine hydrogen oxalate]",,"17,5%","72,9%","% maximal contractional effect ([1]; 10^-10 M, 0.0001 µM): 78,6%"
"COc1cc(OC)c(C(C)C)c(S(=O)(=O)c2ccc(OCCCN(C)CCc3ccc(OC)c(OC)c3)cc2)c1.O=C(O)C(=O)O [Ex.6, 4-[-3(N-methyl N-3,4-dimethoxy-β-phenethylamino)propox]phenyl (2-isopropyl 3,5-dimethoxy phenyl) sulfone oxalate]","13,1%","63,4%","85,7%",
"COc1ccc(CCN(C)CCCOc2ccc([S+]([O-])c3c(C(C)C)c4cccc(C)c4n3C)cc2)cc1OC (stereo not drawn) [Ex. 57, (3-isopropyl 1,7-dimethylindol-2-yl)4-[3-(N-methyl N-3,4-dimethoxy-β-phenethylamino)propoxy]phenyl sulfoxide hydrogen oxalate]","56,9%","76,4%","89,9%",
"COc1ccc(CCN(C)CCCOc2ccc(S(=O)(=O)c3c(C(C)C)c4cc(Cl)ccc4n3C)cc2)cc1OC [Ex. 59, 2-{4-[3-(N-methyl N-3,4-dimethoxy-β-phenethylamino)propoxy]benzenesulfonyl} 5-chloro 3-isopropyl 1-methyl indole]","41,4%","55,4%","68,4%","% maximal contractional effect ([1]; 10^-10 M, 0.0001 µM): 81,5%"
"CCN(CC)CCn1c(C(C)C)c(S(=O)(=O)c2ccc(OCCCN(C)CCc3ccc(OC)c(OC)c3)cc2)c2ccccc21 [Ex. 12, 3-{4-[3-(N-methyl N-3,4-dimethoxy-β-phenethylamino)propoxy]benzenesulfonyl} 1-diethylaminoethyl 2-isopropyl indole dioxalate]","74,9%","84,5%","90,4%",
"COc1ccc(CCNCCCOc2ccc(S(=O)(=O)c3c(C(C)C)c(C)n4ccccc34)cc2)cc1OC [Ex. 14, 2-isopropyl 3-methyl 1-{4-[3-(N-3,4-dimethoxy-β-phenethylamino)propoxy]benzenesulfonyl}indolizine hydrogen oxalate]",,,,"Anti-α effect ([2]; intravenous, 0,12 mg/kg): +++"
"CCCCc1oc2ccc([N+](=O)[O-])cc2c1S(=O)(=O)c1ccc(OCCCN(C)CCc2ccc(OC)c(OC)c2)cc1 [Ex. 1, 2-n-butyl 3-{4-[3-(N-methyl N-3,4-dimethoxy-β-phenethylamino)propoxy]benzenesulfonyl} 5-nitro benzofuran hydrochloride]","70,1%",,,"Anti-α effect ([2]; intravenous, 3,23 mg/kg): +++; % maximal contractional effect ([1]; 10^-6 M, 1 µM): 45,4%"
"CCCCN(CCCC)CCCOc1ccc(S(=O)(=O)c2c(C)nn3cccc(C)c23)cc1.O=C(O)C(=O)O [Ex. 49, 3-{4-[3-(di-n-butylamino)propoxy]benzenesulfonyl} 2,4-dimethyl pyrazolo[1,5-a]pyridine hydrogen oxalate]",,"62,9%","75,7%","Anti-α effect ([2]; intravenous, 0,28 mg/kg): + (for a reduction <50%)"
"COc1ccc2c(c1)c(C(C)C)c(S(=O)(=O)c1ccc(OCCCN(C)CCc3ccc(OC)c(OC)c3)cc1)n2CCCN(C)CCc1ccc(OC)c(OC)c1 [Ex. 63, 2-{4-[3-(N-methyl N-3,4-dimethoxy-β-phenethylamino)propoxy]benzenesulfonyl} 1-[3-(N-methyl N-3,4-dimethoxy-β-phenethylamino)propyl] 3-isopropyl 5-methoxy indole oxalate]","69,7%","82,8%","90,8%",
"Cc1nn2cccc(C)c2c1S(=O)(=O)c1ccc(OCCCN(C)C2CCCc3ccccc32)cc1 (stereo not drawn) [Ex. 51, 3-{4-[3-(N-methyl N-1,2,3,4-tetrahydronapth-1-ylamino)propoxy]benzenesulfonyl} 2,4-dimethyl pyrazolo[1,5-a]pyridine hydrogen oxalate]",,"67,1%",85%,
"CCCCN(CCCC)CCCOc1ccc(S(=O)(=O)c2c(C)nn3c(C)cccc23)cc1 [Ex. 48, 3-{4-[3-(di-n-butylamino)propoxy]benzenesulfonyl} 2,7 dimethyl pyrazolo[1,5-]pyridine hydrogen oxalate]",,"77,1%","85,7%",
"CCc1nn2cc(C)ccc2c1S(=O)(=O)c1ccc(OCCCN(C)CCc2ccc(OC)c(OC)c2)cc1 [Ex. 81, 3-{4-[3-(N-methyl N-3,4-dimethoxy-β-phenethylamino)propoxy]benzenesulfonyl} 2-ethyl 6-methyl pyrazolo[1,5-a]pyridine hydrogen oxalate]",,"78,1%","85,3%","% maximal contractional effect ([1]; 10^-10 M, 0.0001 µM): 91,4%"
"CCCCc1oc2ccc(N)cc2c1S(=O)(=O)c1ccc(OCCCN(C)CCc2ccc(OC)c(OC)c2)cc1 [Ex. 3, 5-amino 3-{4-[3-(N-methyl N-3,4-dimethoxy-β-phenethylamino)propoxy]benzenesulfonyl} 2-n-butyl benzofuran dihydrochloride]",,,,"Anti-α effect ([2]; intravenous, 1,31 mg/kg): +++"
"CCCCc1oc2ccc(NS(C)(=O)=O)cc2c1S(=O)(=O)c1ccc(OCCCN(C)CCc2ccc(OC)c(OC)c2)cc1 [Ex. 4, 3-{4-[3-(N-methyl N-3,4-dimethoxy-β-phenethylamino)propoxy]benzenesulfonyl} 2-n-butyl 5-methane sulfonamido benzofuran hydrogen oxalate]","92,7%",,,"% maximal contractional effect ([1]; 10^-6 M, 1 µM): 49,9%"
"CCCCc1oc2ccc(Cl)cc2c1S(=O)(=O)c1cc(Br)c(OCCCN(C)CCc2ccc(OC)c(OC)c2)c(Br)c1 [Ex. 7, 5-chloro 2-n-butyl 3-{4-[3-(N-methyl N-3,4-dimethoxy-β-phenethylamino)propoxy] 3,5-dibromobenzenesulfonyl}benzofuran hydrogen oxalate]","76,8%",,,"% maximal contractional effect ([1]; 10^-6 M, 1 µM): 80,3%"
